Laboratory results as given in patent US8546343B2, “Aminoglycoside antibiotics targeting bacterial 16S ribosomal RNA” (Eidgenoessische Technische Hochschule Zurich, priority 2007, dated 2013).
Values after ≈ are worked out from the molar mass of the structure shown.

How the values were obtained:
[1] = test system: M. smegmatis ΔrrnB 1491A (16S rRNA position 1491 A, eukaryotic cytosolic ribosomes); assay: MIC, recombinant M. smegmatis with mutant ribosomes 1491A; assay type: cell-based, Mycobacterium smegmatis; conditions: M. smegmatis ΔrrnB 1491A mutant ribosomes; 72 h at 37° C.
In short: (§1)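 M. smegmatis single-rRNA-operon strain carrying the indicated 16S rRNA decoding-site alleles, introduced into the chromosomal operon and confirmed by sequencing. Colony-purified cultures were grown in LB with 0.05% Tween 80 and started at OD600 0.025. MIC was read in microtiter format against twofold drug dilutions.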

[2] = test system: AG002 E. coli clinical isolate; assay: Standard MIC assay, AG002; assay type: cell-based, Escherichia coli
Procedure: (§2) Selected compounds of the present invention were tested for antibiotic susceptibility using clinical isolates of Staphylococci, Enterococci and Escherichia coli as well as strains carrying defined resistance determinants and compared to well known antibiotics of the state of the art. Drug susceptibility was determined in standard MIC assays, i.e. by determination of the minimal drug concentration required to inhibit bacterial growth in vitro.

[3] = test system: AG019 E. faecalis JH2-2 (APH2″ AAC6′); assay: Standard MIC assay, AG019; assay type: cell-based, Enterococcus faecalis; conditions: E. faecalis JH2-2 (APH2″ AAC6′)
Procedure: as §2

[4] = test system: AG017 E. faecalis JH2-2; assay: Standard MIC assay, AG017; assay type: cell-based, Enterococcus faecalis
Procedure: as §2

[5] = test system: AG007 E. coli BM13 (AAC3); assay: Standard MIC assay, AG007; assay type: cell-based, Escherichia coli; conditions: E. coli BM13 (AAC3)
Procedure: as §2

[6] = test system: AG003 E. coli clinical isolate; assay: Standard MIC assay, AG003; assay type: cell-based, Escherichia coli
Procedure: as §2

[7] = test system: AG008 E. coli BM13 (ANT2″); assay: Standard MIC assay, AG008; assay type: cell-based, Escherichia coli; conditions: E. coli BM13 (ANT2″)
Procedure: as §2

[8] = test system: AG009 E. coli BM13 AAC(6′)-1B; assay: Standard MIC assay, AG009; assay type: cell-based, Escherichia coli; conditions: E. coli BM13 AAC(6′)-1B
Procedure: as §2

[9] = test system: M. smegmatis ΔrrnB (bacterial ribosomes); assay: MIC, recombinant M. smegmatis with bacterial (wild-type) ribosomes; assay type: cell-based, Mycobacterium smegmatis; conditions: 72 h at 37° C.
In short: as §1

[10] = test system: AG014 Staph. epi. clinical isolate; assay: Standard MIC assay, AG014; assay type: cell-based, Staphylococcus epidermidis
Procedure: as §2

[11] = test system: AG016 S. aureus BM3002; assay: Standard MIC assay, AG016; assay type: cell-based, Staphylococcus aureus
Procedure: as §2

[12] = test system: AG006 E. coli BM13; assay: Standard MIC assay, AG006; assay type: cell-based, Escherichia coli
Procedure: as §2

[13] = test system: AG013 Staph. epi. clinical isolate; assay: Standard MIC assay, AG013; assay type: cell-based, Staphylococcus epidermidis
Procedure: as §2

[14] = test system: AG015 S. aureus BM3002 (ANT4′); assay: Standard MIC assay, AG015; assay type: cell-based, Staphylococcus aureus; conditions: S. aureus BM3002 (ANT4′)
Procedure: as §2

[15] = test system: M. smegmatis ΔrrnB 1491C (16S rRNA position 1491 C, eukaryotic mitochondrial ribosome); assay: MIC, recombinant M. smegmatis with mutant ribosomes 1491C; assay type: cell-based, Mycobacterium smegmatis; conditions: M. smegmatis ΔrrnB 1491C mutant ribosomes; 72 h at 37° C.
In short: as §1

[16] = test system: M. smegmatis ΔrrnB 1408G (16S rRNA position 1408 G, eukaryotic cytosolic ribosomes); assay: MIC, recombinant M. smegmatis with mutant ribosomes 1408G; assay type: cell-based, Mycobacterium smegmatis; conditions: M. smegmatis ΔrrnB 1408G mutant ribosomes; 72 h at 37° C.
In short: as §1

[17] = test system: AG011 Staph. aureus clinical isolate; assay: Standard MIC assay, AG011; assay type: cell-based, Staphylococcus aureus
Procedure: as §2

[18] = test system: AG001 E. coli clinical isolate; assay: Standard MIC assay, AG001; assay type: cell-based, Escherichia coli
Procedure: as §2

[19] = test system: AG004 E. coli clinical isolate; assay: Standard MIC assay, AG004; assay type: cell-based, Escherichia coli
Procedure: as §2

Row | Molecule | minimal inhibitory concentrations ΔrrnB 1491A [1] | Minimal inhibitory concentrations AG002 [2] | Minimal inhibitory concentrations AG019 [3] | Minimal inhibitory concentrations AG017 [4] | Minimal inhibitory concentrations AG007 [5] | Minimal inhibitory concentrations AG003 [6] | Minimal inhibitory concentrations AG008 [7] | Minimal inhibitory concentrations AG009 [8] | minimal inhibitory concentrations ΔrrnB [9] | Minimal inhibitory concentrations AG014 [10] | Minimal inhibitory concentrations AG016 [11] | Minimal inhibitory concentrations AG006 [12] | Minimal inhibitory concentrations AG013 [13] | Minimal inhibitory concentrations AG015 [14] | minimal inhibitory concentrations ΔrrnB 1491C [15] | minimal inhibitory concentrations ΔrrnB 1408G [16] | Minimal inhibitory concentrations AG011 [17] | Minimal inhibitory concentrations AG001 [18] | Minimal inhibitory concentrations AG004 [19]
1 | NC[C@@H]1O[C@H](O[C@H]2[C@@H](O)[C@H](O[C@@H]3[C@@H](O)[C@H](N)C[C@H](N)[C@H]3O[C@H]3O[C@@H]4CO[C@@H](c5ccccc5)O[C@H]4[C@H](O)[C@H]3N)O[C@@H]2CO)[C@H](N)[C@@H](O)[C@@H]1O [Compound 5.1, 4′,6′-O-benzylideneparomomycin] | 512 mg/L | 64 mg/L (≈ 90.9 µM) | 256 mg/L (≈ 364 µM) | 32 to 64 mg/L | 32 mg/L (≈ 45.5 µM) | 32 mg/L (≈ 45.5 µM) | 32 mg/L (≈ 45.5 µM) | 128 mg/L (≈ 182 µM) | 4 mg/L | 8 mg/L (≈ 11.4 µM) | 16 to 32 mg/L | 32 mg/L (≈ 45.5 µM) | 8 to 16 mg/L | 32 to 64 mg/L | >512 mg/L | 512 mg/L | 8 mg/L (≈ 11.4 µM) | 64 mg/L (≈ 90.9 µM) | 32 to 64 mg/L
2 | NC[C@@H]1O[C@H](O[C@H]2[C@@H](O)[C@H](O[C@@H]3[C@@H](O)[C@H](N)C[C@H](N)[C@H]3O[C@H]3O[C@@H]4CO[C@@H](c5ccc(C(F)(F)F)cc5)O[C@H]4[C@H](O)[C@H]3N)O[C@@H]2CO)[C@H](N)[C@@H](O)[C@@H]1O [Compound 5.17, 4′,6′-O-p-Trifluoromethylbenzylideneparomomycin] | 512 mg/L | 32 to 64 mg/L | 128 mg/L (≈ 166 µM) | 32 mg/L (≈ 41.5 µM) | 32 mg/L (≈ 41.5 µM) | 32 to 64 mg/L | 32 mg/L (≈ 41.5 µM) | 64 to 128 mg/L | 2 to 4 mg/L | 4 mg/L (≈ 5.18 µM) | 8 mg/L (≈ 10.4 µM) | 32 mg/L (≈ 41.5 µM) | 4 to 8 mg/L | 32 mg/L (≈ 41.5 µM) | 512 mg/L | >512 mg/L | 4 mg/L (≈ 5.18 µM) | 32 to 64 mg/L | 32 mg/L (≈ 41.5 µM)
3 | NC[C@@H]1O[C@H](O[C@H]2[C@@H](O)[C@H](O[C@@H]3[C@@H](O)[C@H](N)C[C@H](N)[C@H]3O[C@H]3O[C@@H]4CO[C@@H](CCc5ccccc5)O[C@H]4[C@H](O)[C@H]3N)O[C@@H]2CO)[C@H](N)[C@@H](O)[C@@H]1O [Compound 5.25, 4′,6′-O-(3-Phenyl)-propylideneparomomycin] | ≧512 μg/ml | 32 to 64 mg/L | 32 mg/L (≈ 43.7 µM) | 8 mg/L (≈ 10.9 µM) | 16 to 32 mg/L | 32 mg/L (≈ 43.7 µM) | 32 mg/L (≈ 43.7 µM) | 64 to 128 mg/L | 1 mg/L | 4 mg/L (≈ 5.47 µM) | 8 mg/L (≈ 10.9 µM) | 16 to 32 mg/L | 4 to 8 mg/L | 8 to 16 mg/L | ≧512 μg/ml | 512 mg/L | 4 mg/L (≈ 5.47 µM) | 32 to 64 mg/L | 32 mg/L (≈ 43.7 µM)
4 | NC[C@@H]1O[C@H](O[C@H]2[C@@H](O)[C@H](O[C@@H]3[C@@H](O)[C@H](N)C[C@H](N)[C@H]3O[C@H]3O[C@@H]4COC(C=Cc5ccccc5)O[C@H]4[C@H](O)[C@H]3N)O[C@@H]2CO)[C@H](N)[C@@H](O)[C@@H]1O (stereo partly shown) [Compound 5.26, 4′,6′-O-(3-Phenyl)-propenylideneparomomycin] | ≧512 μg/ml | 64 mg/L (≈ 87.7 µM) | 64 to 128 mg/L | 16 to 32 mg/L | 32 mg/L (≈ 43.8 µM) | 32 mg/L (≈ 43.8 µM) | 32 mg/L (≈ 43.8 µM) | 128 mg/L (≈ 175 µM) | 2 to 4 mg/L | 4 mg/L (≈ 5.48 µM) | 8 mg/L (≈ 11 µM) | 32 mg/L (≈ 43.8 µM) | 4 to 8 mg/L | 16 to 32 mg/L | ≧512 μg/ml | ≧512 μg/ml | 4 mg/L (≈ 5.48 µM) | 32 to 64 mg/L | 32 mg/L (≈ 43.8 µM)
5 | NC[C@H]1O[C@H](O[C@H]2[C@H](O)[C@@H](O[C@H]3O[C@H](CO)[C@@H](O)[C@H](N)[C@H]3O)[C@H](N)C[C@@H]2N)[C@H](O)[C@@H](O)[C@@H]1O [Kanamycin A, kanamycin A, reference compound] |  | 16 mg/L (≈ 33 µM) | >256 mg/L | 32 to 64 mg/L | 8 mg/L (≈ 16.5 µM) | 32 mg/L (≈ 66 µM) | 128 mg/L (≈ 264 µM) | >256 mg/L |  | ≧256 mg/l | 4 to 8 mg/L | 8 mg/L (≈ 16.5 µM) | ≧256 mg/l | 256 mg/L (≈ 528 µM) |  |  | 16 mg/L (≈ 33 µM) | 16 mg/L (≈ 33 µM) | 64 mg/L (≈ 132 µM)
6 | Gentamicin [reference compound] |  | 2 mg/L | >256 mg/L | 8 to 16 mg/L | 128 mg/L | ≧256 mg/l | 64 mg/L | 32 mg/L |  | ≧256 mg/l | 1 mg/L | 4 mg/L | ≧256 mg/l | 4 mg/L |  |  | 4 mg/L | 4 mg/L | >256 mg/L
